Results published in patent US9862680B2, “Peripherally substituted monocyclic beta-lactams” (University of Notre Dame du Lac, priority 2016, dated 2018).

Assays:
Assay type in all cases: cell-based
[1] = test system: panel of Gram-positive and Gram-negative bacteria; assay: Kirby-Bauer agar diffusion assays, results in words
Procedure: (§1) Antibacterial activity of the compounds was determined by a modified Kirby-Bauer^27-28 agar-diffusion assay. Overnight cultures of test organisms were grown in LB broth for 18-24h and standard suspensions of […] were prepared in saline solution (0.9% NaCl) according to a 0.5 BaSO4 McFarland Standard. This standardized suspension (0.1 mL) was added to 34 mL of sterile, Mueller Hinton No. 2 agar tempered to 47-50° C. After gentle mixing, the inoculated agar media was poured into a sterile plastic petri dish (145 mm×20 mm) and allowed to solidify near a flame with the lid cracked for 30 min. Wells of 9.0 mm diameter were cut from the petri dish agar and filled with exactly 50 μL of the test sample solution. For studies using mixtures of compounds, both test compounds were diluted to equal concentrations and 50 μL of the mixed compound solution was added to the cut well. The petri dish was incubated at 37° C. for 18-24 h and the inhibition zone diameters were measured (mm) with an electronic caliper after 24-48 h.
(§2) All compound-containing solutions were prepared by first making a 20 mM solution of the compound in DMSO and then diluting that solution 10-fold with MeOH to give the final 2 mM solution used in the assay.
(§3) Plates were incubated after inoculation at 37° C. for 20 hours. Plates were photographed after 1 day. M. vaccae required a longer incubation time, 48 hours, and was photographed after 3 days.

M. Luteus ATCC 10240 = assay: Agar diffusion assay (modified Kirby-Bauer); conditions: for Zone of Growth Inhibition: M. Luteus ATCC 10240, 2 mM solution, 50 μL in 9.0 mm well, P unclear, V very unclear zone, * slightly misshapen zone
Procedure: as §1, §2, §3

B. Subtilis ATCC 6633 = assay: Agar diffusion assay (modified Kirby-Bauer); conditions: 2 mM solution, 50 μL in 9.0 mm well, P unclear, V very unclear zone, * slightly misshapen zone
Procedure: as §1, §2, §3

P. Aeruginosa K799/wt = assay: Agar diffusion assay (modified Kirby-Bauer); conditions: P. Aeruginosa K799/wt (wild type), 2 mM solution, 50 μL in 9.0 mm well, P unclear, V very unclear zone, * slightly misshapen zone
Procedure: as §1, §2, §3

E. Coli DC0 = assay: Agar diffusion assay (modified Kirby-Bauer); conditions: 2 mM solution, 50 μL in 9.0 mm well, P unclear, V very unclear zone, * slightly misshapen zone
Procedure: as §1, §2, §3

B. Dolosa AU 0018 = assay: Agar diffusion assay (modified Kirby-Bauer); conditions: 2 mM solution, 50 μL in 9.0 mm well, P unclear, V very unclear zone, * slightly misshapen zone
Procedure: as §1, §2, §3

M. Vaccae IMET 10670 = assay: Agar diffusion assay (modified Kirby-Bauer); conditions: 2 mM solution, 50 μL in 9.0 mm well, 48 hours incubation, P unclear, V very unclear zone, * slightly misshapen zone
Procedure: as §1, §2, §3

S. Aureus SG511 = assay: Agar diffusion assay (modified Kirby-Bauer); conditions: 2 mM solution, 50 μL in 9.0 mm well, P unclear, V very unclear zone, * slightly misshapen zone
Procedure: as §1, §2, §3

A. Baumannii ATCC 17961 = assay: Agar diffusion assay (modified Kirby-Bauer); conditions: 2 mM solution, 50 μL in 9.0 mm well, P unclear, V very unclear zone, * slightly misshapen zone
Procedure: as §1, §2, §3

E. Coli DC2 = assay: Agar diffusion assay (modified Kirby-Bauer); conditions: for Zone of Growth Inhibition: E. Coli DC2, 2 mM solution, 50 μL in 9.0 mm well, P unclear, V very unclear zone, * slightly misshapen zone
Procedure: as §1, §2, §3

[2] = test system: panel of Gram-positive and Gram-negative bacteria; assay: MIC determination; conditions: same panel of Gram-positive and Gram-negative bacteria, all values
P. Aeruginosa K799/61 = assay: Agar diffusion assay (modified Kirby-Bauer); conditions: for Zone of Growth Inhibition: P. Aeruginosa K799/61 (permeability mutant), 2 mM solution, 50 μL in 9.0 mm well, P unclear, V very unclear zone, * slightly misshapen zone
Procedure: as §1, §2, §3

[3] = Pseudomonas aeruginosa, read-out: Zone of Growth Inhibition

Structure (SMILES): CC(C)(ON=C(C(=O)NC1C(=O)N(S(=O)(=O)[O-])C1CSCCN)c1cnc(N)s1)C(=O)O.[K+] (racemic) [Compound 48]
- antibacterial activity against Gram-negative bacteria ([1]; agar diffusion, Gram-negative bacteria): very interesting activity
- Zone of Growth Inhibition (M. Luteus ATCC 10240): 26P
- antibacterial activity (M. Luteus ATCC 10240; on the Gram-positive M. luteus): very interesting activity
- Zone of Growth Inhibition (B. Subtilis ATCC 6633): 0 mm
- Zone of Growth Inhibition (P. Aeruginosa K799/wt): 18P
- Zone of Growth Inhibition (E. Coli DC0): 26 mm
- Zone of Growth Inhibition (B. Dolosa AU 0018): 15 mm
- Zone of Growth Inhibition (M. Vaccae IMET 10670): 0 mm
- Zone of Growth Inhibition (S. Aureus SG511): 0 mm
- Zone of Growth Inhibition (A. Baumannii ATCC 17961): 12P
- Zone of Growth Inhibition (E. Coli DC2): 28 mm

Structure (SMILES): CO/N=C(\C(=O)N[C@@H]1C(=O)N(S(=O)(=O)[O-])[C@H]1CSCCN)c1cnc(N)s1.[K+] [Compound 44]
- MIC [2]: > 50 µM
- antibacterial activity ([1]; against B. subtilis, M. luteus, A. baumannii and the permeability mutant strains of P. aeruginosa and E. coli): moderately active
- Zone of Growth Inhibition (M. Luteus ATCC 10240): 14 s
- Zone of Growth Inhibition (B. Subtilis ATCC 6633): 16V
- zone of inhibition at 2000 µM (P. Aeruginosa K799/wt; [3]): 0 mm
- zone of inhibition at 2000 µM (E. Coli DC0; Escherichia coli, read-out: Zone of Growth Inhibition): 23 mm
- zone of inhibition at 2000 µM (P. Aeruginosa K799/61; [3]): 14 mm
- zone of inhibition at 2000 µM (B. Dolosa AU 0018; Burkholderia dolosa, read-out: Zone of Growth Inhibition): 0 mm
- zone of inhibition at 2000 µM (M. Vaccae IMET 10670; Mycolicibacterium vaccae, read-out: Zone of Growth Inhibition): 0 mm
- zone of inhibition at 2000 µM (S. Aureus SG511; Staphylococcus aureus, read-out: Zone of Growth Inhibition): 0 mm
- antibacterial activity (E. Coli DC2; against E. coli DC2, called wild type in the text): active

Structure (SMILES): Cc1ccc(S(=O)(=O)ON2C(=O)CC2CBr)cc1 (stereo not drawn) [Compound 61g]
- Zone of Growth Inhibition (M. Luteus ATCC 10240): 16P
- Zone of Growth Inhibition (B. Subtilis ATCC 6633): 0 mm
- Zone of Growth Inhibition (P. Aeruginosa K799/wt): 0 mm
- Zone of Growth Inhibition (E. Coli DC0): 0 mm
- Zone of Growth Inhibition (P. Aeruginosa K799/61): 0 mm
- Zone of Growth Inhibition (B. Dolosa AU 0018): 0 mm
- Zone of Growth Inhibition (M. Vaccae IMET 10670): 19V
- Zone of Growth Inhibition (S. Aureus SG511): 18V
- Zone of Growth Inhibition (A. Baumannii ATCC 17961): 13.5 mm
- Zone of Growth Inhibition (E. Coli DC2): 0 mm

Structure (SMILES): O=C1CC(CBr)N1OS(=O)(=O)c1ccc([N+](=O)[O-])cc1 (stereo not drawn) [Compound 61e]
- Zone of Growth Inhibition (M. Luteus ATCC 10240): 0 mm
- Zone of Growth Inhibition (P. Aeruginosa K799/wt): 0 mm
- Zone of Growth Inhibition (E. Coli DC0): 0 mm
- Zone of Growth Inhibition (P. Aeruginosa K799/61): 12.6* mm
- Zone of Growth Inhibition (B. Dolosa AU 0018): 0 mm
- Zone of Growth Inhibition (M. Vaccae IMET 10670): 0 mm
- Zone of Growth Inhibition (S. Aureus SG511): 0 mm
- Zone of Growth Inhibition (A. Baumannii ATCC 17961): 0 mm
- Zone of Growth Inhibition (E. Coli DC2): 0 mm

Structure (SMILES): CN(C)c1cccc2c(S(=O)(=O)ON3C(=O)CC3CBr)cccc12 (stereo not drawn) [Compound 61h]
- Zone of Growth Inhibition (P. Aeruginosa K799/wt): 0 mm
- Zone of Growth Inhibition (E. Coli DC0): 0 mm
- Zone of Growth Inhibition (P. Aeruginosa K799/61): 0 mm
- Zone of Growth Inhibition (B. Dolosa AU 0018): 0 mm
- Zone of Growth Inhibition (S. Aureus SG511): 15* mm
- Zone of Growth Inhibition (A. Baumannii ATCC 17961): 0 mm
- Zone of Growth Inhibition (E. Coli DC2): 0 mm
